Laboratory results taken from patent publication US9339486B2, “Heterocyclic modulators of cannabinoid receptors” (THE CLEVELAND CLINIC FOUNDATION, priority 2008, dated 2016).

Legend:
rCB2 receptors = rCB2 receptors (Rattus norvegicus (Rat), UniProt Q9QZN9); experiment: cAMP activation assay rCB2; assay type: cell-based
Procedure: The compound of Example 3 was tested for agonist activity at the rat CB1 (rCB1) and rCB2 receptors, at eight concentrations, in duplicate: 10, 3, 1, 0.3, 0.1, 0.03, 0.01 and 0.001 μM. Recombinant cells grown to mid-log phase in culture media without antibiotics were detached with PBS containing 5 mM EDTA, centrifuged and resuspended in assay buffer at a concentration of 16.6×10^5 cells/ml. The test was performed in 96 well plates. For testing, 12 μl of cells ([…]) were mixed with 12 μl of agonist at increasing concentrations. […] The plates were then incubated for 30 min at room temperature. After addition of the lysis buffer, cAMP concentrations were estimated, according to the manufacturer specification, with the HTRF kit from Cis-Bio International (Catalogue number 62AM2PEB).

[1] = tested on: paclitaxel-induced neuropathy; experiment: Prevention of neuropathy induced by paclitaxel; assay type: in vivo, rat; settings: paclitaxel model
Procedure: A mixture of saline and CREMOPHOR® ELP 10% was used as vehicle for paclitaxel. It was injected at a concentration of 1.0 mg/kg intraperitoneally to the chemotherapy-treated group of rats on 4 consecutive days for a final cumulative dose of 4 mg/kg to 18 rats.
Paw withdrawal thresholds were determined daily in both hind paws of each animal using calibrated von Frey monofilaments according to an up-down procedure. A series of von Frey filaments with exponentially incremental degrees of stiffness (0.4, 0.7, 1.2, 2.0, 3.6, 5.5, 8.5, and 15.1 g) was used to measure the 50% threshold for both hindpaw withdrawal in awake, unrestrained rats. Chaplan, S. R., Quantitative assessment of tactile allodynia in the rat paw, Journal of Neuroscience Methods, 1994, 53:55-63. Brisk paw withdrawal from the pressure of a filament gently bent against the plantar surface of the paw was defined as a positive response, and absence of withdrawal within 6 sec was considered a negative response. The series of filaments touched the hindpaw in sequential ascending or descending order of stiffness until the threshold of response was crossed (allowing about 10 sec between each increment). Each time the threshold was crossed, the direction of stimulus presentation was reversed and the procedure resumed. Four responses were collected after the first threshold detection, and the 50% withdrawal thresholds was interpolated. In cases in which the response thresholds fall outside the range of detection, 15.1 and 0.25 g were assigned for continuous negative or positive responses, respectively, to the limits of stimulation. FIG. 17 and FIG. 18 show results from these experiments and that peripheral neuropathy started to develop within a few days. FIG. 18 reflects that a plateau was reached by the 10th day.
Group 1 of rats received paclitaxel for four days, as described immediately above in subpart (A) titled “Paclitaxel-induced Neuropathy.” In group 2, a dose of 15 mg/kg of the compound of Example 3, injected intraperitoneally was administered 30 minutes prior to the administration of paclitaxel. In group 3, vehicle of the compound of Example 3 was administered 30 min prior to the administration of paclitaxel. Paw withdrawal thresholds were determined daily in both hind paws of each animal using calibrated von Frey monofilaments according to an up-down procedure as described immediately above in subpart (A) titled “Paclitaxel-induced Neuropathy.” The results are shown in FIG. 17.
FIGS. 19A and 19B show results from an experiment in which three groups of rats were administered 0.25 mL of the compound of Example 3 or the vehicle, a mixture of NMP, propylene glycol, chromophore ELP (25%, 25%, 10%) in sterile water 30 min prior to the administration of paclitaxel. Two of the three experimental groups continued to receive either the vehicle or the compound of Example 3 daily for 11 more days.

naïve rats = experiment: Open field chamber testing; assay type: in vivo, rat; settings: i.p.: Example 3 15 mg/kg, WIN 55,212-2 7 mg/kg, haloperidol 1 mg/kg
Procedure: The automated open-field chamber (Med Associates ENV-515 Test Environment, St. Albans, Vt.) 43.2×43.2×30.5 cm (L×W×H) equipped with three pairs of 16 infrared arrays that continually monitored the animal's movement was used to determine potential CNS effects of the compound of Example 3, WIN55212-2, and haloperidol in naïve rats. Rats were individually tested 15 min after i.p. drug administration. The infrared beams were set 2.5 cm apart horizontally and at a height of 3 cm above the floor, with the rearing array set at 12 cm from the floor. The area in the box was divided into 4 equal quadrants (zones), with data collected within each quadrant and across quadrants (zone entries). An ambulatory movement was defined as a motion of at least 5 cm and was coded by quadrant. Vertical movements were counted when the rat moved vertically a minimum of 12 cm from the floor. Zone entries were defined as an entry into a zone (from another zone). Entry into a zone was counted when the rat was far enough into the zone to break 2 sets of photoelectric beams for the new zone beams during an ambulatory movement.

CCCCCCC(C)(C)c1ccc([C@@H]2C[C@H](O)CC[C@H]2CCCO)c(O)c1 [CP55,940, reference compound]
EC50 (rCB2 receptors): 1.13 ± 0.13 nM

COc1ccc2[nH]cc(CCNC(C)=O)c2c1 [Melatonin, reference compound]
protection against neuropathy [1]: did not provide any protection

Cc1c(C(=O)c2cccc3ccccc23)c2cccc3c2n1[C@H](CN1CCOCC1)CO3 [WIN 55,212-2, reference compound]
exploratory behavior in the open field (distance traveled, ambulatory time, rearing, zone entries) (naïve rats): decreased exploratory behavior
